Measurements from ChEMBL document CHEMBL2331468, “Antimalarial activities of 6-iodouridine and its prodrugs and potential for combination therapy” (J Med Chem, 2013).
One block for each compound: values may come before it. Calls of active or inactive are those of the source. No cut-off for these calls is given here.

Columns and labels:
Plasmodium berghei [1] = assay: Antimalarial activity against Plasmodium berghei infected in mouse assessed as reduction of parasitemia at 8 mg/dose, ip on days 4 to 7 relative to untreated control; type: functional, organism-based
Plasmodium berghei [2] = assay: Antimalarial activity against Plasmodium berghei infected in ip dosed BALB/C mouse; type: functional, organism-based
Plasmodium falciparum [3] = assay: Antimalarial activity against Plasmodium falciparum after 72 hrs by lactate dehydrogenase assay in presence of uridine; type: functional, organism-based
C32 = assay: Cytotoxicity against human C32 cells after 48 hrs by MTT assay in presence of uridine; type: cell-based; conditions: c32, 48 h
Plasmodium falciparum [4] = assay: Antimalarial activity against mature-stage Plasmodium falciparum assessed as decrease in viability at 4 uM incubated for 3 hrs followed by compound washout measured after 48 hrs by SYBR-Green staining-based fluorescence analysis relative to untreated control; type: functional, organism-based
Plasmodium falciparum [5] = assay: Antimalarial activity against chloroquine/mefloquine-resistant Plasmodium falciparum KC98 after 72 hrs by lactate dehydrogenase assay; type: functional, organism-based; conditions: KC98, 72 h
Plasmodium falciparum [6] = assay: Antimalarial activity against Plasmodium falciparum after 72 hrs by lactate dehydrogenase assay in absence of uridine; type: functional, organism-based
Plasmodium chabaudi [7] = assay: Antimalarial activity against Plasmodium chabaudi chabaudi infected in BALB/c mouse assessed as reduction in parasitemia at 6 mg/day administered as infusion on days 4 to 6 measured on days 10 to 13 in presence of uridine; type: functional, organism-based
Plasmodium berghei [8] = assay: Antimalarial activity against Plasmodium berghei infected in BALB/c mouse assessed as reduction in parasitemia at 3 mg/dose, ip on days 5 to 7; type: functional, organism-based
Plasmodium chabaudi [9] = assay: Antimalarial activity against Plasmodium chabaudi chabaudi infected in BALB/c mouse assessed as reduction in parasitemia at 6 mg/day administered as infusion on days 4 to 6 measured on days 10 to 13; type: functional, organism-based
Plasmodium berghei [10] = assay: Antimalarial activity against Plasmodium berghei infected in BALB/c mouse assessed as reduction in parasitemia at 3 mg/dose, ip on days 5 to 7 in presence of uridine; type: functional, organism-based
Plasmodium berghei [11] = assay: Antimalarial activity against Plasmodium berghei infected in mouse assessed as reduction of parasitemia at 50 ug/dose, ip on days 4 to 7; type: functional, organism-based
[12] = Hemolytic activity against human erythrocytes at 250 uM; type: ADME, cell-based; conditions: erythrocyte
[13] = Therapeutic index, ratio of IC50 for CHO cells to IC50 for Plasmodium falciparum in absence of uridine; type: cell-based; conditions: hamster, CHO cells versus Plasmodium falciparum; read-out: Ratio IC50
Plasmodium falciparum [14] = assay: Antimalarial activity against Plasmodium falciparum FCR3 after 72 hrs by lactate dehydrogenase assay; type: functional; conditions: FCR-3/Gambia
Plasmodium falciparum [15] = assay: Growth inhibition of Plasmodium falciparum at >250 uM after 72 hrs by lactate dehydrogenase assay in absence of uridine; type: functional, organism-based
Plasmodium falciparum [16] = assay: Antimalarial activity against chloroquine/multidrug-resistant Plasmodium falciparum MB after 72 hrs by lactate dehydrogenase assay; type: functional, organism-based
Plasmodium falciparum [17] = assay: Antimalarial activity against chloroquine/multidrug-resistant Plasmodium falciparum SB after 72 hrs by lactate dehydrogenase assay; type: functional, organism-based
Plasmodium falciparum [18] = assay: Antimalarial activity against chloroquine-resistant Plasmodium falciparum ItG after 72 hrs by lactate dehydrogenase assay; type: functional, organism-based
[19] = Selectivity index for Plasmodium falciparum over Plasmodium berghei in presence of uridine; type: functional
[20] = Therapeutic index, ratio of IC50 for CHO cells to IC50 for Plasmodium falciparum in presence of uridine; type: cell-based; conditions: hamster, CHO cells versus Plasmodium falciparum; read-out: Ratio IC50
Mus musculus [21] = assay: Toxicity against BALB/c mouse infected with Plasmodium berghei assessed as loss in body weight at 6 mg/dose, ip in presence of uridine; type: organism-based; conditions: in vivo
Mus musculus [22] = assay: Toxicity against BALB/c mouse infected with Plasmodium berghei assessed as loss in body weight at 3 mg/dose, ip in presence of uridine; type: organism-based; conditions: in vivo
CHO [23] = assay: Cytotoxicity against CHO cells assessed as growth inhibition after 48 hrs by MTT assay in absence of uridine; type: cell-based; conditions: Cricetulus griseus
Mus musculus [24] = assay: Toxicity against BALB/c mouse infected with Plasmodium berghei assessed as loss in body weight at 12 mg/dose, ip in presence of uridine; type: organism-based; conditions: in vivo
Plasmodium falciparum [25] = assay: Antimalarial activity against chloroquine/mefloquine-resistant Plasmodium falciparum KC98358 after 72 hrs by lactate dehydrogenase assay; type: functional, organism-based; conditions: KC98358, 72 h
Plasmodium chabaudi [26] = assay: Antimalarial activity against Plasmodium chabaudi chabaudi infected in ip dosed BALB/C mouse; type: functional, organism-based
Plasmodium falciparum [27] = assay: Antimalarial activity against Plasmodium falciparum 3D7 after 72 hrs by lactate dehydrogenase assay; type: functional, organism-based; conditions: 3D7, 72 h
Plasmodium chabaudi [28] = assay: Antimalarial activity against Plasmodium chabaudi chabaudi infected in mouse at 6 mg/day administered as infusion on days 4 to 6 relative to untreated control; type: functional, organism-based
CHO [29] = assay: Cytotoxicity against CHO cells at 5 to 250 uM after 48 hrs by MTT assay in presence of uridine; type: cell-based, Cricetulus griseus; conditions: chinese hamster
Plasmodium berghei [30] = assay: Antimalarial activity against Plasmodium berghei infected in BALB/c mouse assessed as reduction in parasitemia at 6 to 12 mg/dose, ip on days 5 to 7; type: functional, organism-based
Plasmodium falciparum [31] = assay: Antimalarial activity against ring-stage Plasmodium falciparum assessed as decrease in viability at 4 uM incubated for 3 hrs followed by compound washout measured after 48 hrs by SYBR-Green staining-based fluorescence analysis relative to untreated control; type: functional, organism-based
Plasmodium berghei [32] = assay: Antimalarial activity against Plasmodium berghei infected in BALB/c mouse assessed as reduction in parasitemia at 6 to 12 mg/dose, ip on days 5 to 7 in presence of uridine; type: functional, organism-based
Plasmodium chabaudi [33] = assay: Antimalarial activity against Plasmodium chabaudi chabaudi infected in mouse assessed as reduction in parasitemia at 6.9 mg/day administered as infusion on days 4 to 6; type: functional, organism-based
Plasmodium chabaudi [34] = assay: Antimalarial activity against Plasmodium chabaudi chabaudi infected in mouse assessed as reduction in parasitemia at 7.1 mg/day administered as infusion on days 4 to 6; type: functional, organism-based

Structure (SMILES): CC[C@H]1OC(=O)[C@H](C)[C@@H](O[C@H]2C[C@@](C)(OC)[C@@H](O)[C@H](C)O2)[C@H](C)[C@@H](O[C@@H]2O[C@H](C)C[C@H](N(C)C)[C@H]2O)[C@](C)(O)C[C@@H](C)CN(C)[C@H](C)[C@@H](O)[C@]1(C)O
- Activity (Plasmodium berghei [1]): inactive

Structure (SMILES): C[n+]1cnn(CCCCCCCCCCCCn2c[n+](C)cn2)c1
- Activity (Plasmodium berghei [2]): Active

Structure (SMILES): O=c1cc(I)n([C@@H]2O[C@H](CO)[C@@H](O)[C@H]2O)c(=O)[nH]1
- IC50 (Plasmodium falciparum [3]): 11.2 µM
- Activity (C32): Non-toxic
- Activity (Plasmodium falciparum [4]): inactive
- IC50 (Plasmodium falciparum [5]): 2.3 µM
- IC50 (Plasmodium falciparum [6]): 13.2 µM
- Activity (Plasmodium chabaudi [7]): Active
- Activity (Plasmodium berghei [8]): Active
- Activity (Plasmodium chabaudi [9]): inactive
- Activity (Plasmodium berghei [10]): Active
- Activity (Plasmodium berghei [11]): Active
- Activity [12]: Toxic
- selectivity ratio [13]: 38
- IC50 (Plasmodium falciparum [14]): 56.5 µM
- growth inhibition (GI) (Plasmodium falciparum [15]): Active
- IC50 (Plasmodium falciparum [16]): 18.7 µM
- IC50 (Plasmodium falciparum [17]): 29.1 µM
- IC50 (Plasmodium falciparum [18]): 1.2 µM
- Selectivity Index [19]: 2
- selectivity ratio [20]: 35
- Activity (Mus musculus [21]): Toxic
- Activity (Mus musculus [22]): Non-toxic
- IC50 (CHO [23]): 491 µM
- Activity (Mus musculus [24]): Toxic
- IC50 (Plasmodium falciparum [25]): 1.4 µM
- IC50 (Plasmodium chabaudi [26]): 300 µM
- IC50 (Plasmodium falciparum [27]): 27 µM
- IC50 (Plasmodium berghei [2]): 303 µM
- Activity (Plasmodium chabaudi [28]): inactive
- Activity (CHO [29]): Toxic
- Activity (Plasmodium berghei [30]): Active
- Activity (Plasmodium falciparum [31]): Active
- Activity (Plasmodium berghei [32]): Active

- IC50 (Plasmodium falciparum [14]): 166 µM
Structure (SMILES): CCCC(=O)OC[C@H]1O[C@@H](n2c(I)cc(=O)[nH]c2=O)[C@H](O)[C@@H]1O
- Activity (Plasmodium chabaudi [33]): Active

- IC50 (Plasmodium falciparum [14]): 85 µM
Structure (SMILES): CCC(=O)OC[C@H]1O[C@@H](n2c(I)cc(=O)[nH]c2=O)[C@H](O)[C@@H]1O
- Activity (Plasmodium chabaudi [34]): inactive
